The target of assay [1] is T1, C-C chemokine receptor type 1 (Homo sapiens, UniProt P32246).
T1 sequence (P32246 whole entry): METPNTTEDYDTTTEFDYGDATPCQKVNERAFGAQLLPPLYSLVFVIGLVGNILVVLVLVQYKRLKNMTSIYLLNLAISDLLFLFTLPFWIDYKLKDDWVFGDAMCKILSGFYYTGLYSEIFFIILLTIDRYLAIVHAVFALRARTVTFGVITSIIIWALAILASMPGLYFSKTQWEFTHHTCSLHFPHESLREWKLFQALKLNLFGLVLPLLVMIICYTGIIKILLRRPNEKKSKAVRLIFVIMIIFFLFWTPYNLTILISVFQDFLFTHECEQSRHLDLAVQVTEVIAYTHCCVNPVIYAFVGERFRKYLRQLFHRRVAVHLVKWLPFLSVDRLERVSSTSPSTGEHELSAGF
In words: Inhibition of CCL3 binding to C-C chemokine receptor type 1.

Assay [2] relates to THP-1. In words: Inhibition of CCL3 induced chemotaxis in THP-1 cells. It is filed as functional, cell-based. The note with it: Homo sapiens.
Another assay is filed under the species Homo sapiens. In words: Compound inhibits CCL3 induced CD11b up-regulation on monocytes in human whole blood. It is filed as functional, organism-based.
The test system of assay [3] is THP-1. In words: Inhibition of CCL3 induced chemotaxis in THP-1 cells; Not active. It is filed as functional, cell-based, Homo sapiens.

Where only a bound is given, the exact number is not on record here.

On to `CNC(=O)[C@H](CC(C)C)C[C@H](O)[C@H](Cc1ccc(F)cc1)NC(=O)c1cnc2ccccc2n1`, for which the IC50 turned out to be 2600 nM in assay [1] and 3000 nM with THP-1 [2].

As for `CNC(=O)[C@H](CC(C)C)C[C@H](O)[C@H](Cc1ccccc1)NC(=O)c1cnc2ccccc2n1`, the IC50 (in assay [1]; in the assay with THP-1 [2]) was 64 nM each time.

With `CNC(=O)[C@H](CCC(C)C)C[C@H](O)[C@H](Cc1ccccc1)NC(=O)c1cnc2ccccc2n1`, the IC50 in assay [1] stood at 22 nM; with THP-1 [2] it was 8 nM.

Regarding `CNC(=O)[C@H](CC(C)C)C[C@H](O)[C@H](CC1CCCCC1)NC(=O)c1cnc2ccccc2n1`, the IC50 in assay [1] was found to be 670 nM; in the assay with THP-1 [2], 560 nM.

Take `CC1(C)CC([C@H](C[C@H](O)[C@H](Cc2ccccc2)NC(=O)c2cnc3ccccc3n2)C(N)=O)CC(C)(C)C1`: the 50% inhibitory concentration (IC50) in assay [1] was 44800 nM; with THP-1 [2], 4600 nM.

Regarding `CNC(=O)[C@H](CC(C)C)C[C@H](O)[C@H](Cc1ccccc1)NC(=O)c1cc2ccccc2nc1O`, the IC50 was 16700 nM in assay [1] and greater than 25000 nM in the assay with THP-1 [2].

Consider `CNC(=O)[C@H](CC(C)C)C[C@H](O)[C@H](Cc1ccc(OC)cc1)NC(=O)c1cnc2ccccc2n1`, for which the IC50 in assay [1] turned out to be 2900 nM; with THP-1 [2] it was 2000 nM.

On to `CNC(=O)[C@H](CC(C)C)C[C@H](O)[C@H](Cc1ccccc1)NC(=O)c1cccnc1`, for which the concentration for half-maximal inhibition (IC50) was greater than 32000 nM in assay [1] and greater than 25000 nM in the assay with THP-1 [2].

`NC(=O)[C@@H](C[C@H](O)[C@H](Cc1ccccc1)NC(=O)c1cnc2ccccc2n1)C1CCCC1`: the IC50 in assay [1] was found to be 26 nM; in the assay with THP-1 [2] it was 28 nM.

For the compound `CC1CC([C@H](C[C@H](O)[C@H](Cc2ccccc2)NC(=O)c2cnc3ccccc3n2)C(N)=O)CC(C)O1` (stereo not given in full), the IC50 amounted to 15 nM in assay [1] and 5 nM in the assay with THP-1 [2].

Turning to `CNC(=O)[C@H](CC(C)C)C[C@H](O)[C@H](Cc1ccccc1)NC(=O)c1ccnc2ccccc12`, the IC50 amounted to 18500 nM in assay [1] and 4300 nM in the assay on THP-1 [2].

As to `CN(C)CC[C@H](C[C@H](O)[C@H](Cc1ccccc1)NC(=O)c1cnc2ccccc2n1)C(N)=O`, the IC50 in assay [1] is 55100 nM; in the assay with THP-1 [2] it was greater than 25000 nM.

As for `CNC(=O)[C@H](CC(C)C)C[C@H](O)[C@H](Cc1ccccc1)NC(=O)c1ccc2ncccc2c1`, the IC50 was found to be 2490 nM in assay [1] and 3300 nM in the assay on THP-1 [2].

As for `NC(=O)[C@H](CC1CCCC1)C[C@H](O)[C@H](Cc1ccccc1)NC(=O)c1cnc2ccccc2n1`, the IC50 came to 48 nM in assay [1] and 12 nM in the assay with THP-1 [2].

With `CNC(=O)[C@H](CC(C)C)C[C@H](O)[C@H](CC1CCCCC1)NC(=O)c1cnc2ccccc2c1`, the IC50 with THP-1 [2] was 840 nM; in the assay filed under Homo sapiens it was roughly 5000 nM.

On to `NC(=O)[C@H](CCO)C[C@H](O)[C@H](Cc1ccccc1)NC(=O)c1cnc2ccccc2n1`, for which the half-inhibitory concentration (IC50) in assay [1] is 4600 nM; in the assay on THP-1 [2], greater than 25000 nM.

For `NC(=O)[C@H](Cc1ccccc1)C[C@H](O)[C@H](Cc1ccccc1)NC(=O)c1cnc2ccccc2n1`, the IC50 amounted to 280 nM in assay [1] and 120 nM in the assay with THP-1 [2].

Regarding `CNC(=O)[C@H](CC(C)C)C[C@H](O)[C@H](Cc1ccccc1)NC(=O)c1cncc(Br)c1`, the IC50 in assay [1] was 510 nM; with THP-1 [3] it was “Not Active”.

Take `CNC(=O)[C@H](CC(C)C)C[C@H](O)[C@H](Cc1ccccc1)NC(=O)c1cnccn1`: the IC50 was greater than 32000 nM in assay [1] and greater than 25000 nM in the assay on THP-1 [2].

On to `CNC(=O)[C@H](CC(C)C)C[C@H](O)[C@H](Cc1ccccc1)NC(=O)c1ccc2ccccc2c1`, for which the IC50 in assay [1] is 10300 nM; in the assay with THP-1 [2] it was greater than 25000 nM.

Take `NC(=O)[C@@H](C[C@H](O)[C@H](Cc1ccccc1)NC(=O)c1cnc2ccccc2n1)C1CCOCC1`: the IC50 in assay [1] was 3500 nM; with THP-1 [2], 12500 nM.

Regarding `CNC(=O)[C@H](CC(C)C)C[C@H](O)[C@H](Cc1ccccc1)NC(=O)c1nccc2ccccc12`, the 50% inhibitory concentration (IC50) in assay [1] is 580 nM; with THP-1 [2], 2400 nM.

`CNC(=O)[C@H](CC(C)C)C[C@H](O)[C@H](Cc1ccc(O)cc1)NC(=O)c1cnc2ccccc2n1`: the half-inhibitory concentration (IC50) in assay [1] was found to be 610 nM; in the assay on THP-1 [2], 1300 nM.

Regarding `CC(C)CC[C@H](C[C@H](O)[C@H](Cc1ccccc1)NC(=O)c1cnc2ccccc2n1)C(N)=O`, the IC50 came to 28 nM in assay [1] and 2 nM with THP-1 [2].

Take `CNC(=O)[C@H](CC(C)C)C[C@H](O)[C@H](Cc1ccccc1)NC(=O)c1ccc2ccccc2n1`: the IC50 in assay [1] came to 130 nM; in the assay on THP-1 [2], 890 nM.

In the assay on THP-1 [2], `CNC(=O)[C@H](CC(C)C)C[C@H](O)[C@H](Cc1ccccc1)NC(=O)c1cnc2ccccc2c1` had an IC50 of 460 nM.

`CC(C)CCC[C@H](C[C@H](O)[C@H](Cc1ccccc1)NC(=O)c1cnc2ccccc2n1)C(N)=O`: the IC50 amounted to 420 nM in assay [1] and 69 nM with THP-1 [2].

As to `CC[C@H](C)[C@H](NC(=O)c1cnc2ccccc2n1)[C@@H](O)C[C@@H](CC(C)C)C(=O)NC`, the IC50 in assay [1] is 4200 nM; in the assay with THP-1 [3], “Not Active”.

Take `CNC(=O)[C@H](CC(C)C)C[C@H](O)[C@H](Cc1ccccc1)NC(=O)c1cnnc2ccccc12`: the IC50 in assay [1] was 2570 nM; in the assay on THP-1 [2], 1100 nM.

For the compound `CNC(=O)[C@H](CC(C)C)C[C@H](O)[C@H](Cc1ccccc1)NC(=O)c1cccc2cccnc12`, the IC50 in assay [1] is greater than 32000 nM; in the assay on THP-1 [2], greater than 25000 nM.

For the compound `CNC(=O)[C@H](CC(C)C)C[C@H](O)[C@H](Cc1ccc(Cl)c(Cl)c1)NC(=O)c1cnc2ccccc2n1`, the IC50 in assay [1] amounted to 160 nM; in the assay on THP-1 [2], 150 nM.

Regarding `CNC(=O)[C@H](CC(C)C)C[C@H](O)[C@H](Cc1ccccc1)NC(=O)c1cncc2ccccc12`, the IC50 was determined as 5150 nM in assay [1] and 6600 nM in the assay with THP-1 [2].

Consider `NC(=O)[C@@H](C[C@H](O)[C@H](Cc1ccccc1)NC(=O)c1cnc2ccccc2n1)C1CCCCC1`, for which the IC50 in assay [1] amounted to 8 nM; with THP-1 [2] it was 5 nM.

Values taken from ChEMBL document CHEMBL1137971, “Potent small molecule CCR1 antagonists” (Bioorg Med Chem Lett, 2004).
